ChEMBL document CHEMBL1817568, “Novel hybrids of fluconazole and furanones: design, synthesis and antifungal activity” (2011)
≈ marks a conversion by molar mass, not a printed value. Calls of active or inactive are those of the source. No cut-off for these calls is given here.

Columns and labels:
Aspergillus fumigatus [1] = test: Antifungal activity against Aspergillus fumigatus ATCC 46645 at 16 ug/ml by broth dilution method; assay type: functional, organism-based
Pichia kudriavzevii [2] = test: Antifungal activity against Candida krusei ATCC 6258 at 16 ug/ml by broth dilution method; assay type: functional, organism-based
Nakaseomyces glabratus [3] = test: Antifungal activity against Candida glabrata ATCC 90030 at 16 ug/ml by broth dilution method; assay type: functional, organism-based
Candida albicans [4] = test: Antifungal activity against Candida albicans ATCC 24433 at 16 ug/ml by broth dilution method; assay type: functional, organism-based
Fusarium proliferatum [5] = test: Antifungal activity against Fusarium proliferatum ATCC 10052 at 16 ug/ml by broth dilution method; assay type: functional, organism-based
Candida tropicalis [6] = test: Antifungal activity against Candida tropicalis ATCC 750 at 16 ug/ml by broth dilution method; assay type: functional, organism-based
Aspergillus niger [7] = test: Antifungal activity against Aspergillus niger ATCC 16404 at 16 ug/ml by broth dilution method; assay type: functional, organism-based
Cryptococcus neoformans [8] = test: Antifungal activity against Cryptococcus neoformans ATCC 34664 at 16 ug/ml by broth dilution method; assay type: functional, organism-based
Aspergillus fumigatus [9] = test: Antifungal activity against Aspergillus fumigatus ATCC 46645 at 32 ug/ml by broth dilution method; assay type: functional, organism-based
Nakaseomyces glabratus [10] = test: Antifungal activity against Candida glabrata ATCC 90030 by broth dilution method; assay type: functional
Fusarium proliferatum [11] = test: Antifungal activity against Fusarium proliferatum ATCC 10052 at 32 ug/ml by broth dilution method; assay type: functional, organism-based
Candida albicans [12] = test: Antifungal activity against Candida albicans ATCC 24433 by broth dilution method; assay type: functional
Pichia kudriavzevii [13] = test: Antifungal activity against Candida krusei ATCC 6258 at 32 ug/ml by broth dilution method; assay type: functional, organism-based
Cryptococcus neoformans [14] = test: Antifungal activity against Cryptococcus neoformans ATCC 34664 at 32 ug/ml by broth dilution method; assay type: functional, organism-based
Aspergillus niger [15] = test: Antifungal activity against Aspergillus niger ATCC 16404 at 32 ug/ml by broth dilution method; assay type: functional, organism-based
Candida tropicalis [16] = test: Antifungal activity against Candida tropicalis ATCC 750 by broth dilution method; assay type: functional
Pichia kudriavzevii [17] = test: Antifungal activity against Candida krusei ATCC 6258 at 2 ug/ml by broth dilution method; assay type: functional, organism-based
Cryptococcus neoformans [18] = test: Antifungal activity against Cryptococcus neoformans ATCC 34664 at 2 ug/ml by broth dilution method; assay type: functional, organism-based
Fusarium proliferatum [19] = test: Antifungal activity against Fusarium proliferatum ATCC 10052 at 2 ug/ml by broth dilution method; assay type: functional, organism-based
Candida tropicalis [20] = test: Antifungal activity against Candida tropicalis ATCC 750 at 2 ug/ml by broth dilution method; assay type: functional, organism-based
Candida albicans [21] = test: Antifungal activity against Candida albicans ATCC 24433 at 2 ug/ml by broth dilution method; assay type: functional, organism-based
Aspergillus fumigatus [22] = test: Antifungal activity against Aspergillus fumigatus ATCC 46645 at 2 ug/ml by broth dilution method; assay type: functional, organism-based
Aspergillus niger [23] = test: Antifungal activity against Aspergillus niger ATCC 16404 at 2 ug/ml by broth dilution method; assay type: functional, organism-based
Nakaseomyces glabratus [24] = test: Antifungal activity against Candida glabrata ATCC 90030 at 2 ug/ml by broth dilution method; assay type: functional, organism-based
Fusarium proliferatum [25] = test: Antifungal activity against Fusarium proliferatum ATCC 10052 at 128 ug/ml by broth dilution method; assay type: functional, organism-based
Cryptococcus neoformans [26] = test: Antifungal activity against Cryptococcus neoformans ATCC 34664 at 128 ug/ml by broth dilution method; assay type: functional, organism-based
Aspergillus niger [27] = test: Antifungal activity against Aspergillus niger ATCC 16404 at 128 ug/ml by broth dilution method; assay type: functional, organism-based
Candida albicans [28] = test: Antifungal activity against Candida albicans ATCC 24433 at 128 ug/ml by broth dilution method; assay type: functional, organism-based
Candida tropicalis [29] = test: Antifungal activity against Candida tropicalis ATCC 750 at 128 ug/ml by broth dilution method; assay type: functional, organism-based
Nakaseomyces glabratus [30] = test: Antifungal activity against Candida glabrata ATCC 90030 at 128 ug/ml by broth dilution method; assay type: functional, organism-based
Aspergillus fumigatus [31] = test: Antifungal activity against Aspergillus fumigatus ATCC 46645 at 128 ug/ml by broth dilution method; assay type: functional, organism-based
Pichia kudriavzevii [32] = test: Antifungal activity against Candida krusei ATCC 6258 at 128 ug/ml by broth dilution method; assay type: functional, organism-based
Fusarium proliferatum [33] = test: Antifungal activity against Fusarium proliferatum ATCC 10052 at 8 ug/ml by broth dilution method; assay type: functional, organism-based
Aspergillus niger [34] = test: Antifungal activity against Aspergillus niger ATCC 16404 at 8 ug/ml by broth dilution method; assay type: functional, organism-based
Pichia kudriavzevii [35] = test: Antifungal activity against Candida krusei ATCC 6258 at 8 ug/ml by broth dilution method; assay type: functional, organism-based
Cryptococcus neoformans [36] = test: Antifungal activity against Cryptococcus neoformans ATCC 34664 at 8 ug/ml by broth dilution method; assay type: functional, organism-based
Aspergillus fumigatus [37] = test: Antifungal activity against Aspergillus fumigatus ATCC 46645 at 8 ug/ml by broth dilution method; assay type: functional, organism-based
Candida tropicalis [38] = test: Antifungal activity against Candida tropicalis ATCC 750 at 8 ug/ml by broth dilution method; assay type: functional, organism-based
Aspergillus fumigatus [39] = test: Antifungal activity against Aspergillus fumigatus ATCC 46645 by broth dilution method; assay type: functional
Fusarium proliferatum [40] = test: Antifungal activity against Fusarium proliferatum ATCC 10052 by broth dilution method; assay type: functional
Aspergillus niger [41] = test: Antifungal activity against Aspergillus niger ATCC 16404 by broth dilution method; assay type: functional
Cryptococcus neoformans [42] = test: Antifungal activity against Cryptococcus neoformans ATCC 34664 by broth dilution method; assay type: functional
Pichia kudriavzevii [43] = test: Antifungal activity against Candida krusei ATCC 6258 by broth dilution method; assay type: functional
Candida albicans [44] = test: Antifungal activity against Candida albicans ATCC 24433 at 32 ug/ml by broth dilution method; assay type: functional, organism-based
Nakaseomyces glabratus [45] = test: Antifungal activity against Candida glabrata ATCC 90030 at 32 ug/ml by broth dilution method; assay type: functional, organism-based
Candida tropicalis [46] = test: Antifungal activity against Candida tropicalis ATCC 750 at 32 ug/ml by broth dilution method; assay type: functional, organism-based

In the case of `COc1cc(/C=C2\SC(=S)NC2=O)cc(OC)c1OCC(O)(Cn1cncn1)c1ccc(F)cc1F` (racemic), the Activity (Aspergillus fumigatus [1]) is reported as “inactive”, the Activity (Pichia kudriavzevii [2]) is reported as “inactive” and the Activity (Nakaseomyces glabratus [3]) is reported as “inactive”. The Activity (Candida albicans [4]) was “inactive”, the Activity (Fusarium proliferatum [5]) was “inactive” and the Activity (Candida tropicalis [6]) was “inactive”. The Activity (Aspergillus niger [7]) was “inactive” and the Activity (Cryptococcus neoformans [8]) was “inactive”.
For `O=C1NC(=S)S/C1=C\c1ccc(OCC(O)(Cn2cncn2)c2ccc(F)cc2F)cc1` (racemic), the Activity (Aspergillus fumigatus [9]) was “inactive”, the MIC50 (Nakaseomyces glabratus [10]) was 4 µg/mL (≈ 8.43 µM) and the Activity (Fusarium proliferatum [11]) was “inactive”. The MIC50 (Candida albicans [12]) was 0.5 µg/mL (≈ 1.05 µM), the Activity (Pichia kudriavzevii [13]) was “inactive” and the Activity (Cryptococcus neoformans [14]) was “inactive”. For the same molecule, the Activity (Aspergillus niger [15]) was “inactive” and the MIC50 (Candida tropicalis [16]) was 8 µg/mL (≈ 16.9 µM).
With `COc1ccc(C2=C(c3ccc(Br)cc3)/C(=C/c3ccc(OCC(O)(Cn4cncn4)c4ccc(F)cc4F)cc3)OC2=O)cc1` (racemic) the Activity (Pichia kudriavzevii [17]) was “inactive”, the Activity (Cryptococcus neoformans [18]) was “inactive” and the Activity (Fusarium proliferatum [19]) was “inactive”. The Activity (Candida tropicalis [20]) was “inactive”, the Activity (Candida albicans [21]) was “inactive” and the Activity (Aspergillus fumigatus [22]) was “inactive”. The Activity (Aspergillus niger [23]) was “inactive” and the Activity (Nakaseomyces glabratus [24]) was “inactive”.
With `COc1cc(/C=C2\N=C(c3ccccc3)OC2=O)cc(OC)c1OCC(O)(Cn1cncn1)c1ccc(F)cc1F` (racemic) the Activity (Pichia kudriavzevii [17]) was “inactive”, the Activity (Cryptococcus neoformans [18]) was “inactive” and the Activity (Fusarium proliferatum [19]) was “inactive”. The Activity (Candida tropicalis [20]) was “inactive”, the Activity (Candida albicans [21]) was “inactive” and the Activity (Aspergillus fumigatus [22]) was “inactive”. The Activity (Aspergillus niger [23]) was “inactive”.
With `COc1cc(CC(=O)O)ccc1OCC(O)(Cn1cncn1)c1ccc(F)cc1F` (racemic) the Activity (Fusarium proliferatum [25]) was “inactive”, the Activity (Cryptococcus neoformans [26]) was “inactive” and the Activity (Aspergillus niger [27]) was “inactive”. The Activity (Candida albicans [28]) was “inactive”, the Activity (Candida tropicalis [29]) was “inactive” and the Activity (Nakaseomyces glabratus [30]) was “inactive”. The Activity (Aspergillus fumigatus [31]) was “inactive” and the Activity (Pichia kudriavzevii [32]) was “inactive”.
In the case of `COc1cc(C2=C(c3ccc(F)cc3F)COC2=O)ccc1OCC(O)(Cn1cncn1)c1ccc(F)cc1F` (racemic), the MIC50 (Nakaseomyces glabratus [10]) is reported as 1 µg/mL (≈ 1.8 µM), the Activity (Fusarium proliferatum [33]) is reported as “inactive” and the Activity (Aspergillus niger [34]) is reported as “inactive”. For the same molecule, the Activity (Pichia kudriavzevii [35]) was “inactive”, the MIC50 (Candida albicans [12]) was 1 µg/mL (≈ 1.8 µM) and the Activity (Cryptococcus neoformans [36]) was “inactive”. For the same molecule, the Activity (Aspergillus fumigatus [37]) was “inactive” and the Activity (Candida tropicalis [38]) was “inactive”.
For `COc1cc(/C=C2\SC(=S)NC2=O)ccc1OCC(O)(Cn1cncn1)c1ccc(F)cc1F` (racemic), the Activity (Aspergillus fumigatus [1]) was “inactive”, the MIC50 (Nakaseomyces glabratus [10]) was 8 µg/mL (≈ 15.9 µM) and the Activity (Pichia kudriavzevii [2]) was “inactive”. For the same molecule, the Activity (Fusarium proliferatum [5]) was “inactive”, the MIC50 (Candida albicans [12]) was 1 µg/mL (≈ 1.98 µM) and the Activity (Candida tropicalis [6]) was “inactive”. The Activity (Aspergillus niger [7]) was “inactive” and the Activity (Cryptococcus neoformans [8]) was “inactive”.
Molecule `C[C@@H]1[C@H](O)[C@@H](C)/C=C/C=C/C=C/C=C/C=C/C=C/C=C/[C@H](O[C@@H]2O[C@H](C)[C@@H](O)[C@H](N)[C@@H]2O)C[C@@H]2O[C@](O)(C[C@@H](O)C[C@@H](O)[C@H](O)CC[C@@H](O)C[C@@H](O)CC(=O)O[C@H]1C)C[C@H](O)[C@H]2C(=O)O` [AMPHOTERICIN B] has an MIC50 (Nakaseomyces glabratus [10]) of 0.25 µg/mL (≈ 0.271 µM), an MIC50 (Aspergillus fumigatus [39]) of 0.5 µg/mL (≈ 0.541 µM) and an MIC50 (Candida albicans [12]) of 0.25 µg/mL (≈ 0.271 µM). For the same molecule, the MIC50 (Candida tropicalis [16]) was 0.5 µg/mL (≈ 0.541 µM), the MIC50 (Fusarium proliferatum [40]) was 2 µg/mL (≈ 2.16 µM) and the MIC50 (Aspergillus niger [41]) was 0.25 µg/mL (≈ 0.271 µM). It also gave an MIC50 (Cryptococcus neoformans [42]) of 0.5 µg/mL (≈ 0.541 µM) and an MIC50 (Pichia kudriavzevii [43]) of 0.5 µg/mL (≈ 0.541 µM).
With `COc1ccc(C2=C(c3ccc(Br)cc3)COC2=O)cc1` the Activity (Aspergillus fumigatus [9]) was “inactive”, the Activity (Candida albicans [44]) was “inactive” and the Activity (Fusarium proliferatum [11]) was “inactive”. The Activity (Pichia kudriavzevii [13]) was “inactive”, the Activity (Cryptococcus neoformans [14]) was “inactive” and the Activity (Aspergillus niger [15]) was “inactive”. For the same molecule, the Activity (Nakaseomyces glabratus [45]) was “inactive” and the Activity (Candida tropicalis [46]) was “inactive”.
